From the C3SDB collision cross section collection come the findings set out here.

The structures appear in SMILES notation. Counter-ions that a name gives are not always drawn.

For data set [1] the following is noted: instrument: DT, stepped-field.
The conditions of data set [2]: instrument: DT, single field, calibrated with Agilent tune mix (Agilent).

In the case of `Nc1ncnc2c1ncn2[C@H]1C[C@H](O)[C@@H](CO)O1` [2'-Deoxyadenosine], the results for the “collision cross section (N2)” value in data set [1] ([M+H]+) and in data set [1] ([M+Na]+) were 162.73 Å² and 166.67 Å², respectively. As to `N[C@@H](Cc1ccccc1Cl)C(=O)O` [2-Chloro-L-Phenylalanine], the “collision cross section (N2)” value in data set [1] ([M+H]+) is 148.86 Å². For the compound `Cc1ccccc1C(=O)NCC(=O)O` [2-Methylhippuric Acid], in data set [1] ([M+Na]+), the “collision cross section (N2)” value is recorded as 156.6 Å². For the compound `CC(C)=CC(=O)SCCNC(=O)CCNC(=O)C(O)C(C)(C)COP(=O)(O)OP(=O)(O)OC[C@H]1O[C@@H](n2cnc3c(N)ncnc32)[C@H](O)[C@@H]1OP(=O)(O)O` (some centres not stated) [3-Methylcrotonyl-CoA], the “collision cross section (N2)” value in data set [1] ([M+H]+) is 180.03 Å².

`CC(=O)NCCCC(=O)O` [4-Acetamidobutanoic Acid]: the “collision cross section (N2)” value in data set [1] ([M+Na]+) was determined as 138.57 Å².

In the case of `NC(N)=NCCCC(=O)O` [4-Guanidinobutanoic Acid], in data set [1] ([M+H]+), the “collision cross section (N2)” value was 132.8 Å². In the case of `N[C@@H](Cc1c[nH]c2ccc(O)cc12)C(=O)O` [5-Hydroxy-L-Tryptophan], the “collision cross section (N2)” value in data set [1] ([M+H]+) was determined as 157.88 Å²; in data set [1] ([M+Na]+), 156.47 Å². Take `C[C@@H]1OC(O)[C@@H](O)[C@H](O)[C@@H]1O` (stereo partly drawn) [6-Deoxy-L-galactose]: the “collision cross section (N2)” value in data set [1] ([M+Na]+) amounted to 147.32 Å². Take `O=C(O)c1ccc(=O)[nH]c1` [6-Hydroxynicotinate]: the “collision cross section (N2)” value in data set [1] ([M+H]+) was found to be 136.43 Å². For the compound `O=C(O)[C@H](O)[C@@H](O)[C@H](O)[C@H](O)COP(=O)(O)O` [6-Phosphogluconic Acid], the “collision cross section (N2)” value in data set [1] ([M+Na]+) was determined as 167.16 Å². The same measure, in the same setting: next, `CCCCC/C=C\C=C\C(O)CCCCCCCC(=O)O` (configuration not stated) [9-HODE]: 189.14 Å². In the case of `CCCCCC(=O)/C=C/C=C/CCCCCCCC(=O)O` [13-OxoODE], the “collision cross section (N2)” value in data set [1] ([M+H]+) is given as 179.4 Å²; in data set [1] ([M+Na]+), 193.37 Å².

As for `CCCCCC1OC1C/C=C\C/C=C\C/C=C\CCCC(=O)O` (configuration not stated) [14(15)-EET], the figures for the “collision cross section (N2)” value in data set [1] ([M+H]+) and in data set [1] ([M+Na]+) were 182.43 Å² and 187.07 Å², respectively. For `CCCCCCCCCCCCCCCCCC(=O)OC[C@@H](O)COP(=O)([O-])OCC[N+](C)(C)C` [18:0 Lyso PC], the “collision cross section (N2)” value in data set [1] ([M+Na]+) stood at 243.07 Å². Consider `CCOCN(C(=O)CCl)c1c(C)cccc1CC` [Acetochlor], for which the “collision cross section (N2)” value in data set [1] ([M+H]+) was 160.09 Å²; in data set [1] ([M+Na]+), 174.6 Å². Consider `CC(=O)Oc1ccccc1C(=O)O` [Acetylsalicylic Acid], for which the “collision cross section (N2)” value in data set [1] ([M+Na]+) was determined as 146.8 Å². For the compound `Nc1ncnc2c1ncn2[C@@H]1O[C@H](COP(=O)(O)OP(=O)(O)O)[C@@H](O)[C@H]1O` [Adenosine 5' Diphosphate], the “collision cross section (N2)” value amounted to 188.61 Å² in data set [1] ([M+H]+) and 196.92 Å² in data set [1] ([M+Na]+). For `NC(=O)NC1NC(=O)NC1=O` (configuration not stated) [Allantoin], the “collision cross section (N2)” value in data set [1] ([M+Na]+) turned out to be 145.61 Å². Turning to `O=C1c2ccccc2C(=O)c2ccccc21` [Anthraquinone], the “collision cross section (N2)” value in data set [1] ([M+H]+) was determined as 141.89 Å². On to `CCCCCCCCCCCCCCCCCCCC(=O)O` [Arachidic Acid], for which, in data set [1] ([M+Na]+), the “collision cross section (N2)” value turned out to be 199.97 Å². As for `C[C@@H]1O[C@@H](O[C@H]2C(=O)c3c(O)cc(O)cc3O[C@@H]2c2ccc(O)c(O)c2)[C@H](O)[C@H](O)[C@H]1O` [Astilbin], the figures for the “collision cross section (N2)” value in data set [1] ([M+H]+) and in data set [1] ([M+Na]+) were 205.87 Å² and 212.64 Å², respectively. For `C=C1C2CCC(C2)C1(C)C` (configuration not stated) [Camphene] the same measures were 130.63 Å² and 133.01 Å². Take `CCCCC[C@H](O)/C=C/[C@H]1CC2CC(C2)[C@@H]1C/C=C\CCCC(=O)O` [Carbocyclic Thromboxane A2]: the “collision cross section (N2)” value in data set [1] ([M+Na]+) stood at 203.6 Å². Still for that read-out and setting: next, `OC[C@H]1O[C@@H](O[C@H]2[C@H](O)[C@@H](O)[C@H](O[C@H]3[C@H](O)[C@@H](O)[C@H](O[C@H]4[C@H](O)[C@@H](O)[C@H](O[C@H]5[C@H](O)[C@@H](O)[C@H](O[C@H]6[C@H](O)[C@@H](O)[C@H](O)O[C@@H]6CO)O[C@@H]5CO)O[C@@H]4CO)O[C@@H]3CO)O[C@@H]2CO)[C@H](O)[C@@H](O)[C@@H]1O` [Cellohexaose]: 283.13 Å². Same read-out and setting: the same measure for `OC[C@H]1O[C@@H](O[C@H]2[C@H](O)[C@@H](O)[C@H](O[C@H]3[C@H](O)[C@@H](O)[C@H](O[C@H]4[C@H](O)[C@@H](O)[C@H](O[C@H]5[C@H](O)[C@@H](O)C(O)O[C@@H]5CO)O[C@@H]4CO)O[C@@H]3CO)O[C@@H]2CO)[C@H](O)[C@@H](O)[C@@H]1O` (some centres not stated) [Cellopentaose]: 251.04 Å². As for `O=C/C=C/c1ccccc1` [Cinnamaldehyde], the “collision cross section (N2)” value in data set [1] ([M+H]+) is recorded as 134.25 Å². On to `O=C(O)/C=C/c1ccccc1` [Cinnamic Acid], for which, in data set [1] ([M+H]+), the “collision cross section (N2)” value was 145.31 Å². `O=C(O)/C=C(/CC(=O)O)C(=O)O` [Cis-Aconitic Acid]: the “collision cross section (N2)” value in data set [1] ([M+H]+) is given as 152.21 Å²; in data set [1] ([M+Na]+) it was 146.78 Å². For `Nc1ccn([C@@H]2O[C@H](CO)[C@@H](OP(=O)(O)O)[C@H]2O)c(=O)n1` [Cytidine 3'-monophosphate] the same measures were 170.98 Å² and 174.9 Å². Turning to `Nc1ccnc(=O)[nH]1` [Cytosine], the “collision cross section (N2)” value in data set [1] ([M+H]+) came out at 121.58 Å². On to `OC1OC[C@@H](O)[C@H](O)[C@H]1O` (stereo partly drawn) [D-(+)-Xylose], for which, in data set [1] ([M+Na]+), the “collision cross section (N2)” value was 132.07 Å². On the same count and under the same terms, the same measure for `O=C[C@@H](O)[C@H](O)[C@H](O)CO` [D-Arabinose]: 143.27 Å²; for `O=C[C@H](O)[C@H](O)COP(=O)(O)O` [D-Erythrose 4-Phosphate]: 153.89 Å²; for `N[C@@H]1C(O)O[C@H](CO)[C@@H](O)[C@@H]1O` (stereo partly drawn) [D-Mannosamine]: 146.73 Å². The same measure, in the same setting: next, `O=C(CO)[C@@H](O)[C@H](O)[C@H](O)[C@H](O)CO` [D-Sedoheptulose]: 150.73 Å². The same measure, in the same setting: the same measure for `O=C(CO)[C@@H](O)[C@H](O)COP(=O)(O)O` [D-Xylulose 5-Phosphate]: 151.4 Å². As to `CN(C)C(=O)Nc1ccc(Cl)c(Cl)c1` [Diuron], the results for the “collision cross section (N2)” value in data set [1] ([M+H]+) and in data set [1] ([M+Na]+) were 153.32 Å² and 162.7 Å², respectively. Take `Cc1cc(O)c2c(c1)C(=O)c1cc(O)cc(O)c1C2=O` [Emodin]: the “collision cross section (N2)” value in data set [1] ([M+H]+) is given as 161.3 Å². As for `O=C1C[C@@H](c2ccc(O)c(O)c2)Oc2cc(O)cc(O)c21` [Eriodictyol], the “collision cross section (N2)” value in data set [1] ([M+H]+) came out at 170.48 Å²; in data set [1] ([M+Na]+), 182.17 Å². `OC[C@@H](O)[C@H](O)[C@H](O)[C@@H](O)CO` [Galactitol]: the “collision cross section (N2)” value in data set [1] ([M+Na]+) came to 145.91 Å². Consider `O=c1c(-c2ccc(O)cc2)coc2cc(O)cc(O)c12` [Genistein], for which the “collision cross section (N2)” value was 163.3 Å² in data set [1] ([M+H]+) and 177.67 Å² in data set [1] ([M+Na]+). For `O=C(O)[C@H](O)[C@@H](O)[C@H](O)[C@H](O)CO` [Gluconic Acid] the same measures were 141.89 Å² and 149.77 Å². Regarding `O=C(O)CNCP(=O)(O)O` [Glyphosate], in data set [1] ([M+Na]+), the “collision cross section (N2)” value is 141.17 Å². As for `NC(N)=NCC(=O)O` [Guanidinoacetic Acid], the “collision cross section (N2)” value in data set [1] ([M+H]+) is reported as 126.88 Å². Take `CN(C)c1nc(=O)n(C2CCCCC2)c(=O)n1C` [Hexazinone]: the “collision cross section (N2)” value is recorded as 163.17 Å² in data set [1] ([M+H]+) and 179.49 Å² in data set [1] ([M+Na]+). The corresponding values for `CC(C)C1(C)N=C(c2ncccc2C(=O)O)NC1=O` (configuration not stated) [Imazapyr] are 157.81 Å² and 176.07 Å². Consider `OC1C(O)C(O)C(O)C(O)C1O` (configuration not stated) [Inositol], for which the “collision cross section (N2)” value in data set [1] ([M+Na]+) is listed as 151.95 Å². The same measure, in the same setting: next, `O=C(O)CC(C(=O)O)C(O)C(=O)O` (configuration not stated) [Isocitric Acid]: 146.78 Å². For `COc1cc(-c2oc3cc(O)cc(O)c3c(=O)c2O)ccc1O` [Isorhamnetin], the “collision cross section (N2)” value is listed as 172.96 Å² in data set [1] ([M+H]+) and 195.91 Å² in data set [1] ([M+Na]+). For `N[C@@H](CCCC(=O)O)C(=O)O` [L-2-Aminoadipic Acid] the same measures were 136.36 Å² and 142.23 Å². On to `NC(=O)C[C@H](N)C(=O)O` [L-Asparagine], for which the “collision cross section (N2)” value was 131.54 Å² in data set [1] ([M+H]+) and 131.94 Å² in data set [1] ([M+Na]+).

`Cc1c(C)c2c(c(C)c1O)CC[C@@](C)(CCC[C@H](C)CCC[C@H](C)CCCC(C)C)O2` [alpha-Tocopherol]: the “collision cross section (N2)” value came to 216.6 Å² in data set [2] ([M+H]+) and 208.52 Å² in data set [2] ([M-H]-). For the compound `Nc1nc(=O)c2ncn([C@@H]3O[C@@H]4COP(=O)(O)O[C@H]4[C@H]3O)c2[nH]1` [cGMP], in data set [2] ([M+H]+), the “collision cross section (N2)” value turned out to be 172.8 Å². For `O=C(O)[C@H]1C[C@@H](O)CN1` [cis-4-Hydroxy-D-proline], the “collision cross section (N2)” value in data set [2] ([M+H]+) is listed as 128.4 Å²; in data set [2] ([M-H]-) it was 122.02 Å². `N[C@@H](CCC(=O)N[C@@H](CCC(=O)O)C(=O)O)C(=O)O` [gamma-L-Glutamyl-L-glutamic acid]: the “collision cross section (N2)” value in data set [2] ([M+H]+) worked out at 162.6 Å²; in data set [2] ([M-H2O-H]-), 152.43 Å². Take `OC1C(O)C(O)C(O)C(O)C1O` (configuration not stated) [myo-Inositol]: the figures for the “collision cross section (N2)” value in data set [2] ([M+Na]+) and in data set [2] ([M-H]-) were 148.2 Å² and 128.61 Å², respectively. With `CC(=O)[C@H]1CC[C@H]2[C@@H]3CC=C4C[C@@H](OS(=O)(=O)O)CC[C@]4(C)[C@H]3CC[C@]12C` [pregnenolone sulfate], the “collision cross section (N2)” value in data set [2] ([M-H]-) is given as 203.91 Å².

Take `CCCCC/C=C/C(=O)O` [trans-2-Octenoic acid]: in data set [2] ([M-H]-), the “collision cross section (N2)” value was 141.13 Å².

In the case of `O=C(O)/C=C/c1ccccc1` [trans-cinnamate], in data set [2] ([M+H]+), the “collision cross section (N2)” value was determined as 125.3 Å².
